Experimental findings from patent US20020081731A1, “MANIPULATION OF PLANT CELL AND TISSUE CULTURES” (priority 1995, published 2002) are described below.

The subject of the experiment is E. californica suspension subcultures. Put plainly: Seed pretreatment, HPLC analysis of suspension subculture extracts. The class given is cell-based, Eschscholtzia californica. The following applies: ungerminated seeds pretreated or not pretreated; T1 and T3 conditions; organic solvent extract of cell biomass. The source says:
Ungerminated E. californica seeds were either pretreated by exposure to 5-azacytidine, or not pretreated. After uniform germination, callus induction and subculture, suspension initiation, and suspension subculture, the resulting suspension subcultures were subjected to T1 (control) and T3 conditions.

`Nc1ncn([C@@H]2O[C@H](CO)[C@@H](O)[C@H]2O)c(=O)n1` [5-azacytidine]: the “size, number, and location of peaks in the chromatograms” value was “significantly altered the size, number, and location of peaks”.
